In patent publication US20220362401A1, “PARTICLES, METHOD FOR PRODUCING PARTICLES, DRUG, METHOD FOR PRODUCING DRUG, AND ANTI-CANCER AGENT” (THE UNIVERSITY OF KITAKYUSHU, priority 2019, published 2022):

System: mouse colorectal cancer cell CT26
Experiment: Anti-tumor effect in tumor-bearing mice, transition of tumor volume
Format: in vivo, mice (BALB/c)
Details: i.v. injection, α-mangostin 10 mg/kg, nanoparticles of average particle size 20 nm, FIG. 9
Protocol: The anti-tumor effect of the particles of the present invention containing α-mangostin was examined using mice (BALB/c, 7 weeks old, male) that bore the mouse colorectal cancer cell CT26. It was confirmed that the size of the tumor that the mice bore reached 100 mm^3 (7 days after), and a sample was intravenously administered (i. v. injection). The doses of α-mangostin at this time were standardized to 10 mg/kg. The transition of the tumor volume was observed after the administration.
Nanoparticles: average particle size: 20 nm (produced under the conditions of X (TX100): 0.15 mM and Y (ECH): 2.1 mL of Production Example 5) α-mangostin: Tokyo Chemical Industry Co., Ltd. Buffer solution: phosphate buffer (pH 7.5) nanoparticles containing no α-mangostin: only the nanoparticles (50 mg/mL) α-mangostin solution: α-mangostin solution (1.0 mM) containing 0.4 vol % DMSO, 2 vol % ethanol, and 2 vol TWEEN 80 (surfactant) nanoparticles containing α-mangostin: solution in which α-mangostin was contained in the nanoparticles (nanoparticle concentration: 50 mg/mL, α-mangostin concentration: 1.0 mM) Experimental data (animal experiment using mice)

COc1c(O)cc2oc3cc(O)c(CC=C(C)C)c(O)c3c(=O)c2c1CC=C(C)C [MGS, α-mangostin] was tested, and the “effect of suppressing the cancer growth (tumor volume)” value was “not observed”.
